Tested on: TGFβ-ALK5-SMAD2/3 signaling pathway in Luc-Smad2/3-NIH3T3 cells
Test: In vitro cell luciferase assay in Luc-Smad2/3-NIH3T3 cells stimulated with TGFβ1
Type: cell-based
Conditions: Mus musculus; TGFβ1 4 ng/mL, 2% FBS medium, luciferase chemiluminescence
Experimental: Test compounds: For the compounds of the present disclosure prepared in the above examples, each compound was prepared into 4 mM using DMSO. Then, a 4-fold serial dilution was made to obtain 20000.00 nM, 5000.00 nM, 1250.00 nM, 312.5 nM, 78.125 nM, 19.53 nM, 4.88 nM and 1.22 nM successively.
Luc-Smad2/3-NIH3T3 mouse fibroblasts (engineered to overexpress SMAD2,3-responsive promoter) were provided by a laboratory of China Pharmaceutical University.
Reagents: DMEM, purchased from Invitrogen, US; FBS, purchased from Invitrogen, US; DMSO, purchased from Sigma, US; Glo Lysis Buffer, purchased from Progema, US; Bright-Glo Luciferase assay system, purchased from Promega, US; and TGFβ, purchased from PeproTech, US.
Instruments: MD SpectraMaX M3 multifunctional enzyme reader, purchased from Molecular Devices, US.
Cell recovery: The cells were dissolved by placing in a […] water bath, then transferred to a 15 mL of pre-warmed culture medium, and centrifuged at 1000 rpm for 5 minutes. After the culture medium was discarded, the cells were resuspend in 15 mL of fresh culture medium, transferred to a 10 cm dish, and placed in an incubator at 37° C. with 5% CO2 for culture. After 24 hours, the culture medium for the cells was changed with a fresh culture medium.
Cell passage: The recovered cells were transferred to a 50 mL sterile centrifuge tube and centrifuged at 1000 rpm for 5 minutes. The culture medium was discarded. The evenly dispersed cells was counted, and adjusted to an appropriate cell concentration of 15 mL of fresh culture medium, added to a 10 cm dish, and placed in an incubator at 37° C. with 5% CO2 for culture.
Luc-Smad2/3-NIH3T3 cells were cultured normally in a 10 cm culture dish until the confluence reached 80%-90%. After digestion, they were collected in a 15 mL centrifuge tube, centrifuged at 1000×g for 5 minutes to remove the supernatant, and resuspended with 1 mL of medium, then diluted 10 times and counted. The cells was diluted according to the results from the count, and transferred into a 96-well plate at 4×10^3/cells per well (100 μl of resuspended cells was added in each well).
1-2 mg of the drug was weighed (weighed in advance), and prepared into a 4 mM stock solution using DMSO. After 24 hours, the culture medium was removed. The drug was diluted with 2% FBS culture medium. 100 μl of the 1× drug solution was added to make the final concentration of the drug to be 20000.00 nM, 5000.00 nM, 1250.00 nM, 312.5 nM, 78.125 nM, 19.53 nM, 4.88 nM, and 1.22 nM. TGFβ1 was present in each well at a final concentration of 4 ng/mL, and diluted with 2% FBS culture medium together with the compounds.
The Glo Lysis Buffer and the Bright-glo luciferase assay system as well as the cells were equilibrated to room temperature. After the cell supernatant was removed, the cells were dissolved evenly by adding 100 μl of the Glo Lysis Buffer to each well with shaking slowly, and lysed at room temperature for 5 minutes. After that, to each well, 100 μl of the Bright-glo luciferase assay system was added to incubate the cells for 5 minute at room temperature with shaking for 2 minutes. Then, 180 μl of the supernatant was transferred to a white bottom 96-well plate to detect chemiluminescence signal. The detection condition was 1 s.
2.3 Data processing: Graphpad Prism 5 software was used to perform nonlinear curve fitting and data analysis to obtain IC50 by fitting.

Row | Structure (SMILES) | IC50
1 | CS(=O)(=O)N1CC=C(c2ccc3c(Oc4cn(C5CC5)nc4C4CCOCC4)ccnc3c2)CC1 [Example 22, 4-((1-cyclopropyl-3-(tetrahydro-2H-pyran-4-yl)-1H-pyrazol-4-yl)oxy)-7-(1-(methylsulfonyl)-1,2,3,6-tetrahydropyridin-4-yl)quinoline] | 56 nM
2 | NS(=O)(=O)c1ccc(-c2ccc3c(Oc4cn(C5CC5)nc4C4CCOCC4)ccnc3c2)cc1 [Example 20, 4-(4-((1-cyclopropyl-3-(tetrahydro-2H-pyran-4-yl)-1H-pyrazol-4-yl)oxy)quinolin-7-yl)benzenesulfonamide] | 75 nM
3 | CC(C)(O)Cn1cc(-c2ccc3c(Oc4cn(C5CC5)nc4C4CCOCC4)ccnc3c2)cn1 [Example 11, 1-(4-(4-((1-cyclopropyl-3-(tetrahydro-2H-pyran-4-yl)-1H-pyrazol-4-yl)oxy)quinolin-7-yl)-1H-pyrazol-1-yl)-2-methylpropan-2-ol] | 96 nM
4 | CS(=O)(=O)n1cc(-c2ccc3c(Oc4cn(C5CC5)nc4C4CCOCC4)ccnc3c2)cn1 [Example 9, 4-((1-cyclopropyl-3-(tetrahydro-2H-pyran-4-yl)-1H-pyrazol-4-yl)oxy)-7-(1-(methylsulfonyl)-1H-pyrazol-4-yl)quinoline] | 101 nM
5 | CS(=O)(=O)c1ccc(-c2ccc3c(Oc4cn(C5CC5)nc4C4CCOCC4)ccnc3c2)cn1 [Example 21, 4-((1-cyclopropyl-3-(tetrahydro-2H-pyran-4-yl)-1H-pyrazol-4-yl)oxy)-7-(6-(methylsulfonyl)pyridin-3-yl)quinoline] | 49 nM
6 | c1cc(Oc2cn(C3CC3)nc2C2CCOCC2)c2ccc(-c3cn[nH]c3)cc2n1 [Example 8, 4-((1-cyclopropyl-3-(tetrahydro-2H-pyran-4-yl)-1H-pyrazol-4-yl)oxy)-7-(1H-pyrazol-4-yl)quinoline] | 92 nM
7 | Cn1cc(-c2ccc3c(Oc4cn(C5CC5)nc4-c4ccccc4)ccnc3c2)cn1 [Example 14, 4-((1-cyclopropyl-3-phenyl-1H-pyrazol-4-yl)oxy)-7-(1-methyl-1H-pyrazol-4-yl)quinoline] | 46 nM
8 | FC(F)(F)Cn1cc(-c2ccc3c(Oc4cn(C5CC5)nc4C4CCOCC4)ccnc3c2)cn1 [Example 13, 4-((1-cyclopropyl-3-(tetrahydro-2H-pyran-4-yl)-1H-pyrazol-4-yl)oxy)-7-(1-(2,2,2-trifluoroethyl)-1H-pyrazol-4-yl)quinoline] | 81 nM
9 | CS(=O)(=O)CCn1cc(-c2ccc3c(Oc4cn(C5CC5)nc4C4CCOCC4)ccnc3c2)cn1 [Example 10, 4-((1-cyclopropyl-3-(tetrahydro-2H-pyran-4-yl)-1H-pyrazol-4-yl)oxy)-7-(1-(2-(methylsulfonyl)ethyl)-1H-pyrazol-4-yl)quinoline] | 90 nM
10 | FC(F)(F)c1nc2n(n1)CCN(c1ccc3c(Oc4cn(C5CC5)nc4C4CCOCC4)ccnc3c1)C2 [Example 23, 4-((1-cyclopropyl-3-(tetrahydro-2H-pyran-4-yl)-1H-pyrazol-4-yl)oxy)-7-(2-(trifluoromethyl)-5,6-dihydro-[1,2,4]triazolo[1,5-a]pyrazin-7(8H)-yl)quinoline] | 200 nM
11 | CC(C)n1cc(-c2ccc3c(Oc4cn(C5CC5)nc4C4CCOCC4)ccnc3c2)cn1 [Example 12, 4-((1-cyclopropyl-3-(tetrahydro-2H-pyran-4-yl)-1H-pyrazol-4-yl)oxy)-7-(1-isopropyl-1H-pyrazol-4-yl)quinoline] | 77 nM
